Test results taken from patent US20210008101A1, “METHODS AND COMPOSITIONS FOR PREVENTING, REDUCING OR ERADICATING TOXICITY CAUSED BY ACETAMINOPHEN (APAP)” (SINEW PHARMA INC., priority 2018, published 2021).
Entries after “also recorded” stand apart in the source; their conditions may differ.

Experiments:
Type in all cases: in vivo, Sprague-Dawley rats
[1] = system: APAP-induced hepatotoxicity; assay: Plasma AST and ALT determination in APAP-induced toxicity animal model; details: SD-rats, mean ± SD
Protocol: (§1) Male Sprague-Dawley rats (weighing 220-300 g) were obtained from Professor Dr. Gonzalez of the American Country Health Research Institute (USA), introduces three male and four female mice, pairs voluntarily reproduces. All of the experiments were performed in adherence with the National Institutes of Health Guidelines for the treatment of animals. All of the mice were maintained in a room with air/humidity control and a 12-h light/dark cycle, and allowed access to food and water ad libitum throughout the experiment.
In the single dose study […], rats were randomly divided into 3 treatment groups: (1) a normal control group (NC, n=5), in which normal SD-rats were orally administrated with saline four times a day for multiple doses at a volume of 1 mL/kg; (2) an APAP control group (APAP, n=5), in which normal SD-rats were orally administrated with APAP in saline at dose of 1 g/kg (1,000 mg/kg) for single oral dose administration; (3) an positive control group (NAC, n=5), in which normal SD-rats were orally administrated with APAP and N-acetylcysteine (NAC) in saline at dose of 1 g/kg and 140 mg/kg for single oral dose administration; (4) the various selected antidote test groups (each groups, n=5), in which normal SD-rats were orally administered with APAP in saline at dose of 1,000 mg/kg and e various antidote agents each at dose of less than or equivalent to 200 mg per 60 kg person body weight of single oral dose administration. In addition, according to US FDA Guidance for Industry “Estimating the Maximum Safe Starting Dose in Initial Clinical Trials for Therapeutics in Adult Healthy Volunteers”, the HED (human equivalent dose) for a human adult of 60 kg can be calculated as follows: HED=animal dose (1,000 mg/kg in rats)×human body weight (60 kg)/6.2=9.677g (about 10 g).
(§2) At the end of the treatment, the animals were sacrificed under diethyl ether anesthesia. Blood was collected from the hearts of the mice into heparin tubes, and plasma was separated by centrifugation at 13,000×g for 5 min at 4° C. Aliquots of plasma were transferred to Eppendorf tubes and stored at −80° C. until analysis.
Plasma enzyme activities (aspartate aminotransferase [AST] and alanine aminotransferase [ALT]) were determined at 37° C. by using a Synchron LXi 725 (Beckman Instruments, Palo Alto, Calif. USA) with kits provided by the manufacturer.
(§3) All data are represented in mean ± standard deviation (SD) and the results are calculated using ANOVA to determine the significance. Statistical Package of the Social Science program (Version 13, SPSS Inc.) is used for calculations followed by post hoc test to examine the least significant difference for multiple comparisons so as to confirm the significant differences between groups and the average difference between groups was significant p<0.05.

[2] = system: APAP-induced nephrotoxicity; assay: Serum creatinine and BUN (kidney function) in APAP-induced toxicity animal model; details: SD-rats, mean ± SD
Protocol: as §1
(§4) In the single dose study of the antidote effect of APAP metabolic enzyme inhibition on APAP-induced nephrotoxicity, rats were randomly divided into 3 treatment groups: (1) a normal control group (NC, n=5), in which normal SD-rats were orally administrated with saline four times a day for multiple doses at a volume of 1 mL/kg; (2) an APAP control group (APAP, n=5), in which normal SD-rats were orally administrated with APAP in saline at dose of 1 g/kg (1,000 mg/kg) for single oral dose administration; (3) an positive control group (NAC, n=5), in which normal SD-rats were orally administrated with APAP and N-acetylcysteine (NAC) in saline at dose of 1 g/kg and 140 mg/kg for single oral dose administration; (4) the various selected antidote test groups (each groups, n=5), in which normal SD-rats were orally administered with APAP in saline at dose of 1,000 mg/kg and e various antidote agents each at dose of less than or equivalent to 200 mg per 60 kg person body weight of single oral dose administration. In addition, according to US FDA Guidance for Industry “Estimating the Maximum Safe Starting Dose in Initial Clinical Trials for Therapeutics in Adult Healthy Volunteers”, the HED (human equivalent dose) for a human adult of 60 kg can be calculated as follows: HED=animal dose (1,000 mg/kg in rats)×human body weight (60 kg)/6.2=9.677g (about 10 g).
as §2
Serum creatinine and BUN levels were measured using the commercial kits (BEN) (Biochemical Enterprise, Milano, Italy) CR280 and BK151 in an automatic biochemical analyzer (ChemWell, Palm City, Fla.) at 340 nm and 510 nm, respectively.
as §3

[3] = system: APAP-induced renal lesions; assay: Histological examination of kidney (H&E) in APAP-induced toxicity animal model; details: H&E stained kidney section, 200×
Protocol: as §1, §4
The kidney groups were fixed in 10% neutral formalin for 48-72 h. Then, tissues were trimmed and processed for a routine histopathological examination. […]

[4] = system: toxicity (nephrotoxicity and hepatotoxicity) caused by APAP; assay: Overall antidote activity against toxicity caused by APAP (animal model); details: rats given APAP 1,000 mg/kg; summary of Table 1
Protocol: as §1, §4

[5] = APAP alone 1,000 mg/kg single oral dose (toxicity control group), n=5
[6] = APAP alone 1,000 mg/kg single oral dose (toxicity control group), n=5, listed as AAP
[7] = APAP 1,000 mg/kg single oral dose plus antidote single oral dose, n=5
[8] = APAP 1,000 mg/kg oral plus antidote at high dose
[9] = APAP 1,000 mg/kg oral plus antidote at low dose

Structure (SMILES): CC(=O)Nc1ccc(O)cc1 [APAP, N-acetyl-para-aminophenol]
- ALT (hepatotoxicity) [1, 5]: 382.3±32.1 IU/L
- AST (hepatotoxicity) [1, 5]: 591.0±59.2 IU/L
- ALT (hepatotoxicity) [1, 6]: 382.3 ± 32.1 IU/L
- AST (hepatotoxicity) [1, 6]: 591.0 ± 59.2 IU/L
- BUN (nephrotoxicity) [2, 5]: 87.8 ± 6.6 mg/dL
- Creatinine (nephrotoxicity) [2, 5]: 1.13 ± 0.17 mg/dL
- BUN (nephrotoxicity) [2, 6]: 87.8 ± 6.6 mg/dL
- Creatinine (nephrotoxicity) [2, 6]: 1.13 ± 0.17 mg/dL
- Kidney histology (renal lesions), FIG. 1 ([3]; acetaminophen 1 g/kg alone): severe renal lesions including necrosis, congestion and extravasation of red blood cells
- Kidney histology (renal lesions), FIG. 1 ([3]; acetaminophen 1 g/kg alone, listed as acetaminophen): Severe necrosis, congestion and extravasation of red blood cells were seen

Structure (SMILES): OC[C@@H](O)[C@@H](O)[C@H](O)[C@H](O)CO [Mannitol]
- Antidote activity against toxicity (nephrotoxicity and hepatotoxicity) caused by APAP [4]: effective in reducing or eradicating toxicity
- ALT (hepatotoxicity) [1, 7]: 91.9 ± 8.4 IU/L
- AST (hepatotoxicity) [1, 7]: 365.7 ± 35.5 IU/L
- BUN (nephrotoxicity) [2, 7]: 41.0 ± 2.6 mg/dL
- Creatinine (nephrotoxicity) [2, 7]: 0.56 ± 0.13 mg/dL

Structure (SMILES): O=c1c(O)c(-c2ccc(O)cc2)oc2cc(O)cc(O)c12 [Kaempferol]
- Antidote activity against toxicity (nephrotoxicity and hepatotoxicity) caused by APAP [4]: effective in reducing or eradicating toxicity
- ALT (hepatotoxicity) [1, 8]: 82.2 ± 17.6 IU/L
- AST (hepatotoxicity) [1, 8]: 332.2 ± 27.1 IU/L
- ALT (hepatotoxicity) [1, 9]: 179.4 ± 12.9 IU/L
- AST (hepatotoxicity) [1, 9]: 395.6 ± 32.6 IU/L
- BUN (nephrotoxicity) [2, 8]: 31.5 ± 7.6 mg/dL
- Creatinine (nephrotoxicity) [2, 8]: 0.38 ± 0.09 mg/dL
- BUN (nephrotoxicity) [2, 9]: 58.8 ± 7.0 mg/dL
- Creatinine (nephrotoxicity) [2, 9]: 0.70 ± 0.09 mg/dL

Structure (SMILES): OC[C@H]1O[C@H](O[C@]2(CCl)O[C@H](CCl)[C@@H](O)[C@@H]2O)[C@H](O)[C@@H](O)[C@H]1Cl [Sucralose]
- Antidote activity against toxicity (nephrotoxicity and hepatotoxicity) caused by APAP [4]: effective in reducing or eradicating toxicity
- ALT (hepatotoxicity) [1, 7]: 82.8 ± 8.4 IU/L
- AST (hepatotoxicity) [1, 7]: 288.4 ± 33.8 IU/L
- BUN (nephrotoxicity) [2, 7]: 33.6 ± 2.7 mg/dL
- Creatinine (nephrotoxicity) [2, 7]: 0.40 ± 0.15 mg/dL

Structure (SMILES): CC(=O)N[C@@H](CS)C(=O)O [NAC, N-acetylcysteine, reference compound]
- ALT (hepatotoxicity) [1, 7]: 206.7 ± 20.1 IU/L
- AST (hepatotoxicity) [1, 7]: 423.7 ± 38.1 IU/L
- BUN (nephrotoxicity) [2, 7]: 48.4 ± 9.8 mg/dL
- Creatinine (nephrotoxicity) [2, 7]: 0.64 ± 0.05 mg/dL
- Kidney histology (renal lesions), FIG. 1 ([3]; acetaminophen 1 g/kg plus antidote): Mild to moderate degenerations were seen; also recorded: reduced to mild to moderate level

Structure (SMILES): O=c1cc(-c2ccc(O)c(O)c2)oc2cc(O)cc(O)c12 [Luteolin]
- Antidote activity against toxicity (nephrotoxicity and hepatotoxicity) caused by APAP [4]: effective in reducing or eradicating toxicity
- ALT (hepatotoxicity) [1, 8]: 57.1 ± 14.7 IU/L
- AST (hepatotoxicity) [1, 8]: 223.8 ± 15.5 IU/L
- ALT (hepatotoxicity) [1, 9]: 78.9 ± 15.7 IU/L
- AST (hepatotoxicity) [1, 9]: 279.1 ± 35.1 IU/L
- BUN (nephrotoxicity) [2, 8]: 23.7 ± 4.4 mg/dL
- Creatinine (nephrotoxicity) [2, 8]: 0.25 ± 0.07 mg/dL
- BUN (nephrotoxicity) [2, 9]: 31.5 ± 7.3 mg/dL
- Creatinine (nephrotoxicity) [2, 9]: 0.43 ± 0.08 mg/dL

Structure (SMILES): O=C1C[C@@H](c2ccc(O)cc2)Oc2cc(O)cc(O)c21 [Nariagenin]
- Antidote activity against toxicity (nephrotoxicity and hepatotoxicity) caused by APAP [4]: effective in reducing or eradicating toxicity
- ALT (hepatotoxicity) [1, 7]: 63.1 ± 11.6 IU/L
- AST (hepatotoxicity) [1, 7]: 231.1 ± 39.0 IU/L
- BUN (nephrotoxicity) [2, 7]: 36.0 ± 7.8 mg/dL
- Creatinine (nephrotoxicity) [2, 7]: 0.32 ± 0.03 mg/dL
